Data from US20180362473A1, “BIOORTHOGONAL METHODS AND COMPOUNDS” (The University Court of the University of Edinburgh, priority 2013, published 2018).
Read-outs that look alike come from different tables or passages of the source. One block for each compound: values may come before it.

Experiments:
Type in all cases: cell-based
colorectal HCT116 cells [1] = assay: PrestoBlue cell viability assay, 5 days treatment; details: for toxigenic effect of prodrug combined with Pd^0-resins (BOOM conversion): HCT116, prodrug 100 μM + Pd^0-resin 1 mg/mL; for cytotoxic effect / effect on cell viability of prodrug alone: HCT116, without palladium, 5 days, doses up to 1,000 μM (FIG. 18A: 0.1-300 μM)
Experimental: (§1) The toxicities of 5FU and its prodrugs were compared by performing dose-response studies with 5FU and Pro-5FU (0.01 μM to 1 mM). Doses of Pro-5FU and 5FU (0.01, 0.03, 0.1, 0.3, 1, 3, 10, 30 and 100 μM, for both cell lines, and additional doses of 300 μM and 1,000 μM for colorectal HCT116 cells) were incubated with cells for 5 days and cell viability measured to determine the corresponding EC values. Cell viability was analysed by fluoresce intensity nm; nm) after 45 min incubation with PrestoBlue™ Reagent (Life Technologies).
(§2) The toxigenic effect as a result of in situ generation of 5FU in cell culture was determined by incubating colorectal HCT116 cells or pancreatic BXPc-3 cells in tissue culture media containing 0.1% (viv) DMSO and a) Pd^0-resin (1 mg/mL, negative control); b) prodrug (negative, control); or c) Pd^0-resin (1 mg prodrug (reaction assay). Cells incubated in 0.1% (v/v) DMSO in media was used as an untreated cell reference standard (100% viability). A PrestoBlue® cell viability assay as described above was carried out and fluorescent intensities compared to the untreated cell control. Prodrug concentrations were 100 μM for HCT116 cells, and 30 μM for BxPC-3 cells.
(§3) HCT116 and BXPc-3 cells were plated in Dulbecco's Modified Eagle Media (DMEM) and Roswell Park Memorial Institute (RPMI) respectively, supplemented with serum (10% FBS) and L-glutamine (2 mM). Cells were seeded in a 96 wail plate format with a density of either 30.000 cells and incubated for 48 h at 37° C. and 5% CO2 before treatment. Each well was then replaced with fresh media containing: Pd^0-resins (1 mg/ml) (negative control); prodrug (0.01 μM to 1 mM) in DMSO (0.1% v/v) (negative control); 5FU (0.01 μM to 1 mM) in DMSO (0.1% v/v) (positive control); or a combination of Pd^0 resin+prodrug (0.01 μM to 1 mM in 0.1% v/v DMSO). Cells incubated in 0.1% (v/v) DMSO in media were used as untreated cell reference standard (i.e. 100% cell viability). Cells were incubated in the fresh media for 5 days. PrestoBlue cell viability reagent (Life Technologies) (10% v/v) was then added to each well and the plate incubated for 45 min, Fluorescence intensity values (detected using a PerkinElmer EnVision 2101 multilabel reader with excitation filter at 540 nm and emissions filter at 590 nm) were determined relative to the untreated cell control.

pancreatic BxPC-3 cells [2] = assay: PrestoBlue cell viability assay, 5 days treatment; details: for toxigenic effect of prodrug combined with Pd^0-resins (BOOM conversion): BxPC-3, prodrug 30 μM + Pd^0-resin 1 mg/mL; for EC50: Homo sapiens, 120 h, PrestoBlue
Experimental: as §1, §2, §3

HCT116 cells = assay: Real-time confluence study (Incucyte live-cell imaging); details: HCT116, 100 μM, 5 days (120 h)
Experimental: FIGS. 9A and 9B show real-time cell confluence study data for Pro-5FU and 5FU (HCT116 cells in FIG. 9A and BXPc-3 cells in FIG. 9B) plotting cell proliferation (indicated by % phase object confluence) against time. Cell proliferation was monitored for 5 days (120 h) using the high-content live-cell imaging system Incucyte™ (Essen BioScience) placed in an incubator (5% CO2, 37° C.), Pro-5FU and 5FU were used at 100 μM and 10 μM for HCT116 and BXPc-3 cells, respectively.
(§4) To study the phenotypic effect of the prodrug catalyst system compared to 5FU, cell proliferation was monitored for 5 days (120 h) using the high-content live-cell imaging system Incucyte™ Essen BioScience) placed in an incubator (5% CO2, 37° C.). Cell confluence analysis and supplementary movies 1 and 2 were carried out using the Incucyte software. Experiments (performed as described above for the dose response cell viability assay) were imaged by time-lapse contrast phase microscopy and cell growth represented as a function of total cell confluence.

BxPC-3 cells = assay: as above; details: BxPC-3, 30 μM, 5 days (120 h)
Experimental: FIGS. 9A and 9B show real-time cell confluence study data for Pro-5FU and 5FU (HCT116 cells in FIG. 9A and BXPc-3 cells in FIG. 9B) plotting cell proliferation (indicated by % phase object confluence) against time. […]
as §4

[3] = system: total p53 protein and phosphorylated p53 (Serine 15) in HCT116 cells; assay: Zeptosens Reverse Phase Protein Microarray analysis; details: HCT116, 100 μM, 24 h exposure
Experimental: Post-translational modifications of cancer relevant pathways (including p53) were quantified by antibody-based proteomics across time-series studies using Zeptosens Reverse Phase Protein Microarray analysis.
Cells were plated in their respective supplemented media in a 6 well plate at a density of 240,000 cells/mL and incubated for 46 h. Before adding to the cells, Fro-5FU (100 μM for HCT116) and Pd^0-resins (1 mg/mL) were incubated for 24h to overcome the time relapse required to convert Pro-5FU into 5FU. Cells were treated with the Pd^8 resin+Pro-5FU combination and the controls (as before: untreated cells; Pd^0; Pro-5FU; and 5FU) and incubated for 6 and 24 h. Afterwards, the cells were washed with PBS (2×3 mL) and lysed with Zeptosens CLB1 lysis buffer (90 μl). Samples were analyzed by Zeptosens RPPA using the following specific conditions. Tumor cell lysates were normalized to a uniform protein concentration with spotting buffer CSBL1 (Zeptosens-Bayer) prior to preparing a final 4-fold concentration series of; 0.2; 0.15; 0.1 and […]. […] A weighted linear fit through the 4-fold concentration series was used to calculate relative fluorescence intensity (RFI) value for each sample replicate. […] Abundance levels of total p53 protein and phosphorylated p53 (Serine 15) were plotted as RFI data calculated by the ZeptoView™ 3.1 software.

colorectal HCT116 cells [4] = assay: Test for competitive inhibition by prodrug (cell viability); details: HCT116, 5FU 10 μM + Pro-5FU 0.1-1,000 μM, prodrug/drug ratio up to 100:1
Experimental: (§5) Cells were incubated with 5FU (10 μM for HCT116 cells and 1 μM for BxPC-3 cells) in combination with increasing doses of Pro-5FU (0.1-1,000 μM), and cell viability determined.

pancreatic BxPC-3 cells [5] = assay: as above; details: BxPC-3, 5FU 1 μM + Pro-5FU 0.1-1,000 μM, prodrug/drug ratio up to 100:1
Experimental: as §5

SMILES: C=CCn1cc(F)c(=O)[nH]c1=O [All-5FU]
toxigenic effect of prodrug combined with Pd^0-resins (BOOM conversion) (colorectal HCT116 cells [1]): No appreciable cytotoxicity
toxigenic effect of prodrug combined with Pd^0-resins (BOOM conversion) (pancreatic BxPC-3 cells [2]): No appreciable cytotoxicity

SMILES: O=c1[nH]c(=O)n(Cc2ccccc2)cc1F [Bn-5FU]
toxigenic effect of prodrug combined with Pd^0-resins (BOOM conversion) (colorectal HCT116 cells [1]): low levels of toxicity
toxigenic effect of prodrug combined with Pd^0-resins (BOOM conversion) (pancreatic BxPC-3 cells [2]): low levels of toxicity

EC50 (colorectal HCT116 cells [1]; Homo sapiens, HCT-116, 120 h, HCT116, 5 days incubation, PrestoBlue, read-out: EC50 5FU): 2 µM
EC50 (pancreatic BxPC-3 cells [2]; BXPc-3, 5 days incubation, read-out: EC50 5FU): 0.136 µM
EC50 (pancreatic BxPC-3 cells [2]; BxPC-3, 5 days incubation, read-out: EC50): 0.136 µM
SMILES: O=c1[nH]cc(F)c(=O)[nH]1 [Compound 5FU, 5-fluorouracil]
cell growth (confluence) vs time (HCT116 cells): decreased rapidly after a few hours
cell growth (confluence) vs time (BxPC-3 cells): decreased rapidly after a few hours
abundance of total and Ser15-phosphorylated p53 [3]: overexpressed

SMILES: C#CCn1c(=O)[nH]cc(F)c1=O [Compound 6]
cytotoxic effect / effect on cell viability of prodrug alone (colorectal HCT116 cells [1]): no effect

SMILES: C#CCn1c(=O)c(F)cn([C@H]2CC(O)[C@@H](CO)O2)c1=O (stereo partly shown) [Compound 11, 3-propergyl-floxuridine]
times less cytotoxic effect on cell viability than floxuridine (colorectal HCT116 cells [1]; HCT116, dose range 0.003-30 μM, without palladium): over 1000 times

SMILES: O=c1[nH]c(=O)n([C@H]2C[C@H](O)[C@@H](CO)O2)cc1F [FUDR, floxuridine]
times more potent than 5-FU (colorectal HCT116 cells [1]): around 50 times

fold reduction in effect, EC50 (Pro-5FU)/EC50 (5FU) (colorectal HCT116 cells [1]; HCT116, prodrug without palladium): greater than 500 fold
SMILES: C#CCn1cc(F)c(=O)[nH]c1=O [Pro-5FU]
effect of prodrug on cytotoxicity of 5FU (colorectal HCT116 cells [4]): no antagonistic effect
effect of prodrug on cytotoxicity of 5FU (pancreatic BxPC-3 cells [5]): no antagonistic effect
cytotoxic effect / effect on cell viability of prodrug alone (colorectal HCT116 cells [1]): no effect
fold reduction in effect versus 5FU (pancreatic BxPC-3 cells [2]; BxPC-3, prodrug without palladium): greater than 700 fold
abundance of total and Ser15-phosphorylated p53 [3]: no induction
